Results reported in patent publication US20050238635A1, “Use of hyrogen peroxide producting enzyme for treatment of otitis media” (priority 2002, published 2005).

What was measured:
H influenzae = assay: filtrate test: inhibitory effect of cell-free PBS filtrate of AHS on growth (CFU) of H influenzae; type: cell-based
Experimental: Numbers of colony forming units (CFU) were counted after serial dilutions in PBS and growth over night at 37° C. in air. Identification of the bacteria was based on different morphology of the isolates growing on the agar plates. AHS and M catarrhalis were grown on agar plates with 7% human blood and McLeod plates were used when H influenzae was assayed.
To achieve a filtrate with inhibitory activity, about 10^6 CFU of AHS were inoculated in 4 vials, each containing 15 ml of broth and incubated for 12 hours. The suspension was then centrifuged at 3000 rpm for 15 min and the supernatant was thrown away. The bacteria were transferred into one vial and two ml of phosphate buffered saline (PBS) was added and incubated at 37° C. for 5 hours. The suspension was then passed through a 0.2 μm sterile filter to remove the bacteria. Otitis media pathogens (0.1 ml) were then added to the filtrate (1 ml) and incubated at 37° C. The controls were incubated in fresh PBS.
Catalase is a specific enzyme catalyzing the conversion of H2O2 into O2 and H2O. This reaction proceeds rapidly. Purified catalase from human erythrocytes (>30.000U/mg) was used in the assays. The assays were performed as described above in the filtrate tests, with the exception that catalase, 1000 U/ml (=0.01 ml), was added to the vials with filtrate and PBS. […]

[1] = trypsin tested together with hydrogen peroxide for catalase effect; type: biochemical
M catarrhalis (Mcat-res) = assay: broth test of alpha 4 co-cultured with resistant M catarrhalis (Mcat-res), with amitrole; type: cell-based; conditions: amitrole 50 mM in broth, 7 hours, 37° C.
Experimental: Amitrole is an irreversible catalase inhibitor [12]. If an increased or more efficient catalase production was involved in the development of resistance of M cararrhalis to an isolate of AHS. This resistance would be reverted by addition of amitrole. In broth tests with alpha 4 together with M catarrhalis in 5 ml broth, 50 mM (0.1 ml) of amitrole (3-amino-1,2,4-triazole), was added into the solution and incubated for 7 hours at 37° C. in air with intermittent shaking. The isolate of M catarrhalis (Mcat-res) had developed resistance against alpha 4 after co-culturing in broth. CFU counts were calculated at start and after 7 hours of incubation. Alpha 4 with M catarrhalis in broth without amitrole, broth and M catarrhalis alone and M catarrhalis alone with amitrole in broth served as controls.

Trypsin
reversal of the inhibitory effect of the cell-free filtrate of alpha 89 (H influenzae; trypsin 2.5 mg/ml, filtrate incubated with H influenzae): only slightly reverse | catalase effect [1]: no catalase effect

Nc1nc[nH]n1 [amitrole, 3-amino-1,2,4-triazole]
sensitivity of resistant M catarrhalis to inhibition of alpha 4 when amitrole added (M catarrhalis (Mcat-res)): became sensitive

B1: Catalase: Purified catalase from human erythrocytes; enzyme catalyzing the conversion of H2O2 into O2 and H2O (protein, UniProt P04040 2-527, looked up)
Catalase: ADSRDPASDQMQHWKEQRAAQKADVLTTGAGNPVGDKLNVITVGPRGPLLVQDVVFTDEMAHFDRERIPERVVHAKGAGAFGYFEVTHDITKYSKAKVFEHIGKKTPIAVRFSTVAGESGSADTVRDPRGFAVKFYTEDGNWDLVGNNTPIFFIRDPILFPSFIHSQKRNPQTHLKDPDMVWDFWSLRPESLHQVSFLFSDRGIPDGHRHMNGYGSHTFKLVNANGEAVYCKFHYKTDQGIKNLSVEDAARLSQEDPDYGIRDLFNAIATGKYPSWTFYIQVMTFNQAETFPFNPFDLTKVWPHKDYPLIPVGKLVLNRNPVNYFAEVEQIAFDPSNMPPGIEASPDKMLQGRLFAYPDTHRHRLGPNYLHIPVNCPYRARVANYQRDGPMCMQDNQGGAPNYYPNSFGAPEQQPSALEHSIQYSGEVRRFNTANDDNVTQVRAFYVNVLNEEQRKRLCENIAGHLKDAQIFIQKKAVKNFTEVHPDYGSHIQALLDKYNAEKPKNAIHTFVQSGSHLAAREKANL
reversal of the inhibitory effect of the cell-free filtrate of AHS (H influenzae; catalase 1000U/ml, filtrate of alpha 89 incubated with H influenzae): completely reverse
